Reference: US20240342120A1, “MULTIPLE MYELOMA TREATMENT” (Vanda Pharmaceuticals Inc., priority 2013, published 2024)

Assays:
Format in all cases: cell-based
[1] = tested on: CCNB1, AURKB, CDC2, BIRC5, KIF11, KIF2C, TOP2A, ASPM, CKS1B, and WEE1; assay: Affymetrix gene expression, ten-gene summary, cells treated 24 hours; settings: human retinal pigment epithelial cell line; 24 hours vs vehicle; summary in words of Table 1
Method: (§1) A human retinal pigment epithelial cell line was treated with trichostatin or vehicle for 24 hours and gene expression for 22,238 probe sets covering 12,490 genes was generated using an Affymetrix instrument.

[2] = tested on: CDC2; assay: Affymetrix gene expression, CDC2, cells treated 24 hours; settings: probe 203214_x_at; human retinal pigment epithelial cell line; 24 hours vs vehicle; Instance ID 10005533
Method: as §1

[3] = tested on: TOP2A; assay: Affymetrix gene expression, TOP2A, cells treated 24 hours; settings: human retinal pigment epithelial cell line, 24 hours vs vehicle
Method: as §1

## CC(/C=C/C(=O)NO)=C\[C@@H](C)C(=O)c1ccc(N(C)C)cc1 [trichostatin A, 7-[4-(dimethylamino)phenyl]-N-hydroxy-4,6-dimethyl-7-oxohepta-2,4-dienamide]
[1]
  effect on expression of CCNB1, AURKB, CDC2, BIRC5, KIF11, KIF2C, TOP2A, ASPM, CKS1B, and WEE1: significant downregulation
[2]
  Fold Expression Δ, CDC2: −11.83 Fold
[3]; probe 201291_s_at, Instance ID 10005533
  Fold Expression Δ, TOP2A: −28.22 Fold
[3]; probe 201292_at, Instance ID 10005532
  Fold Expression Δ, TOP2A: −31.95 Fold
